{
  "source": "patent US20120108629A1",
  "about": "“New use of neferine” (Institute of Chinese Materia Medica, China Academy, priority 2009, published 2012)",
  "key": {"[1]": {"test_system": "TRPV1 mRNA", "assay": "TRPV1 mRNA expression in DRG cells by real-time PCR", "assay_type": "cell-based, rat", "conditions": "for TRPV1 mRNA expression (2^−ΔΔCT): 37° C. 24 h"}, "[2]": {"test_system": "TRPV1", "assay": "Intracellular calcium change in DRG cells, Fluo-4 fluorescence (Examples 4-5, Tables 4-5)", "assay_type": "cell-based, rat", "description": "(§1) Detection of intracellular calcium concentrations of DRG cells: DRG cells cultured under normal, low and high temperature conditions was obtained. The medium was discarded and the cells were washed after certain time. 0.1%F-127, 5 μM of Fluo-4-AM, M fluorescent dye were added and loaded at 25° C. out of light for 30 min. After dye loading, the redundant dye was washed out and buffer and test compounds were added respectively. The cells were put in a closed chamber on a microscope stage. Fluorescence dyed cells were detected with appropriate conditions. The change of fluorescence intensity in each cell was determined and the data were analyzed by software. The change of the intracellular calcium concentration was indicated by fluorescence intensity. The change degree of the intracellular calcium concentration was represented by the percent ratio of the change value of fluorescence intensity before and after administration and the value of fluorescence intensity before administration (Δ[Ca2+]i), i.e. Δ[Ca2+]i=(fluorescence intensity value after administration F-fluorescence intensity value before administration F0)/fluorescence intensity value before administration F0×100%. The change of the intracellular calcium concentration indicated the function of TRP.\n(§2) The medium was discarded and the fluorescent dye was added and loaded for 30 min. The change of fluorescence intensity in cell was determined in a closed chamber on a microscope stage and the change of the intracellular calcium concentration was assayed.\nas §2"}, "[3]": {"molecular_target": "TRPV1 (Rattus norvegicus, UniProt O35433)", "sequence (O35433 whole entry)": "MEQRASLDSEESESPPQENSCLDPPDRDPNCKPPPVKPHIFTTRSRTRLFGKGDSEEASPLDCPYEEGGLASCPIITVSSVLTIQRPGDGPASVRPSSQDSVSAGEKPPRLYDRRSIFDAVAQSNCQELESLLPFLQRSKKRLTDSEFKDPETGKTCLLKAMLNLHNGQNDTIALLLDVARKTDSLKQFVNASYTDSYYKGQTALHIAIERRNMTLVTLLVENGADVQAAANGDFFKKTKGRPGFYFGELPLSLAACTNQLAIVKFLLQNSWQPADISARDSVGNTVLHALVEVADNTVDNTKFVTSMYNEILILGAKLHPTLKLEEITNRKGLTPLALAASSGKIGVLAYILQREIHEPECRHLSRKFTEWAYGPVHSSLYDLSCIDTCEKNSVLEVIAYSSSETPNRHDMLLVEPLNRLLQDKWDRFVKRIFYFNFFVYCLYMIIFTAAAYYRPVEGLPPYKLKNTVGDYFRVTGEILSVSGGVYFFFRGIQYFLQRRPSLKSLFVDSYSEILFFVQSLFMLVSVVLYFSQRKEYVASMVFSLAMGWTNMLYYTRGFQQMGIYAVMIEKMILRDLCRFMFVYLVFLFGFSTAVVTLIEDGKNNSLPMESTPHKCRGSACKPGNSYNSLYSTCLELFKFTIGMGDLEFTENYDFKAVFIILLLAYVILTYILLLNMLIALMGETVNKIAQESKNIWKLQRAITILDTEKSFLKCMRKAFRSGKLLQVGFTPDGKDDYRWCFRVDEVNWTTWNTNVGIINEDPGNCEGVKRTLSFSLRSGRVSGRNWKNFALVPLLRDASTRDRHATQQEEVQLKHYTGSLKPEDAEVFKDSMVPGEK", "assay": "Intracellular calcium change in DRG cells, Fluo-4 fluorescence (Examples 9-11, Tables 9-11)", "assay_type": "cell-based", "description": "as §1, §2, §2\n(this is the appropriate stimulation time for the intracellular calcium change after stimulation under 19° C., and the experiment data was not shown). The medium was discarded and the fluorescent dye was added and loaded for 30 min."}, "[4]": {"test_system": "TRPM8 mRNA", "assay": "TRPM8 mRNA expression in DRG cells by real-time PCR", "conditions": "DRG cells", "method": "DRG were aseptically removed and meticulously cleaned the rootlets and connective tissue. The tissue was digested with collagenase and trypsin in succession, and then centrifuged and the digestive liquid was discarded. Cells were prepared into single cell suspension in common culture medium, and then calculated and adjusted to 10^5 nerve cells per ml. It was incubated in culture plates pre-coated with laminin at 37° C. in 5% CO2 for 48 hours. Camptothecine was used to inhibit proliferation of other cells. Culture was continued to obtain DRG cells with a high purity (>98%).\nDetection of TRPM8 and TRPV1 mRNA expression: The total RNA of the DRG neuronal cells was extracted in a routine way, after exposure to the tested agents of various concentrations under the normal, low and high temperature conditions respectively. The concentration of RNA was measured and its cDNA was prepared. The desired amount of resulting cDNA and TRPM8 or TRPV1 gene primers were added on the IQ5-Type real-time IQ5-Type real-time PCR meter with GAPDH as the endogenous control to perform extension. Melting curves were generated. Relative gene expression was calculated using the comparative threshold cycle (2-^ΔΔCT) method with the calculated formula as following:\nΔΔCt=(Ct,Target-Ct,GAPDH)x-(Ct,Target-Ct,GAPDH)Control\nX represents any one of tested, Control represents double target gene expression after GAPDH correction.\nThe purified culture medium of DRG cells was added with three different concentrations of test compounds and cultured at 37° C. in 5% CO2 for 24 h. The total RNA was extracted immediately after culture. The TRPM8 agonist hexahydrothymol was positive control group and the normal culture medium was vehicle control group. Then the real-time PCR amplification was performed and TRPM8 mRNA was determined.\nThe purified culture medium of DRG cells was added with three different concentrations of test compounds and cultured at 37° C. in 5% CO2 for 23 h followed by 39° C. in 5% CO2 for 1 h. The total RNA was extracted immediately after culture. The TRPM8 agonist hexahydrothymol was positive control group and the normal culture medium was vehicle control group. Then the real-time PCR amplification was performed and TRPM8 mRNA was determined.\nThe purified culture medium of DRG cells was added with three different concentrations of test compounds and cultured at 37° C. in 5% CO2 for 22 h followed by 19° C. in 5% CO2 for 2 h. The total RNA was extracted immediately after culture. The TRPM8 agonist hexahydrothymol was positive control group and the normal culture medium was vehicle control group. Then the real-time PCR amplification was performed and TRPM8 mRNA was determined."}, "[5]": {"conditions": "37° C. 22 h then 19° C. 2 h, 37.5 μmol/L"}, "[6]": {"conditions": "37° C. 22 h then 19° C. 2 h, 75 μmol/L"}, "[7]": {"conditions": "37° C. 22 h then 19° C. 2 h, 150 μmol/L"}, "[8]": {"conditions": "37° C. 23 h then 39° C. 1 h, 37.5 μmol/L"}, "[9]": {"conditions": "37° C. 23 h then 39° C. 1 h, 75 μmol/L"}, "[10]": {"conditions": "37° C. 23 h then 39° C. 1 h, 150 μmol/L"}},
  "data": [
    {"smiles": "CC1CCC(C(C)C)C(O)C1", "note": "(stereo not drawn) [hexahydrothymol, reference compound]", "values": [
      {"measurement": "TRP V1 mRNA expression(2^−ΔΔCT)", "setting": "[1]; [5]", "value": "0.54 ± 0.17"},
      {"measurement": "TRP V1 mRNA expression(2^−ΔΔCT)", "setting": "[1]; [6]", "value": "0.48 ± 0.19"},
      {"measurement": "TRP V1 mRNA expression(2^−ΔΔCT)", "setting": "[1]; [7]", "value": "0.47 ± 0.15"},
      {"measurement": "TRP V1 mRNA expression(2^−ΔΔCT)", "setting": "[1]; [8]", "value": "4.22 ± 0.49"},
      {"measurement": "TRP V1 mRNA expression(2^−ΔΔCT)", "setting": "[1]; [9]", "value": "4.01 ± 0.73"},
      {"measurement": "TRP V1 mRNA expression(2^−ΔΔCT)", "setting": "[1]; [10]", "value": "4.05 ± 0.81"},
      {"measurement": "TRPV1 mRNA expression (2^−ΔΔCT)", "setting": "[1]; 37.5 μmol", "value": "0.96 ± 0.21"},
      {"measurement": "TRPV1 mRNA expression (2^−ΔΔCT)", "setting": "[1]; 75 μmol", "value": "1.10 ± 0.28"},
      {"measurement": "TRPV1 mRNA expression (2^−ΔΔCT)", "setting": "[1]; 150 μmol", "value": "1.08 ± 0.31"},
      {"measurement": "Intracellular Calcium changes [(F1 − F0)/F0/%]", "setting": "[2]; Table 4, DRG cells, 37° C. 24 h, 37.5 μmol/L", "value": "116.52 ± 10.22", "unit": "%"},
      {"measurement": "Intracellular Calcium changes [(F1 − F0)/F0/%]", "setting": "[2]; Table 4, DRG cells, 37° C. 24 h, 75 μmol/L", "value": "117.46 ± 13.58", "unit": "%"},
      {"measurement": "Intracellular Calcium changes [(F1 − F0)/F0/%]", "setting": "[2]; Table 4, DRG cells, 37° C. 24 h, 150 μmol/L", "value": "120.65 ± 12.19", "unit": "%"},
      {"measurement": "Intracellular Calcium changes [(F1 − F0)/F0/%]", "setting": "[2]; Table 5, DRG cells, 37° C. 22 h then 39° C. 2 h, 37.5 μmol/L", "value": "107.54 ± 13.09", "unit": "%"},
      {"measurement": "Intracellular Calcium changes [(F1 − F0)/F0/%]", "setting": "[2]; Table 5, DRG cells, 37° C. 22 h then 39° C. 2 h, 75 μmol/L", "value": "108.63 ± 15.17", "unit": "%"},
      {"measurement": "Intracellular Calcium changes [(F1 − F0)/F0/%]", "setting": "[2]; Table 5, DRG cells, 37° C. 22 h then 39° C. 2 h, 150 μmol/L", "value": "112.92 ± 13.19", "unit": "%"},
      {"measurement": "Intracellular Calcium changes [(F1 − F0)/F0/%]", "setting": "[3]; Table 9, DRG cells, 37° C. 24 h, 37.5 μmol/L", "value": "100.14 ± 11.26", "unit": "%"},
      {"measurement": "Intracellular Calcium changes [(F1 − F0)/F0/%]", "setting": "[3]; Table 9, DRG cells, 37° C. 24 h, 75 μmol/L", "value": "101.82 ± 14.89", "unit": "%"},
      {"measurement": "Intracellular Calcium changes [(F1 − F0)/F0/%]", "setting": "[3]; Table 9, DRG cells, 37° C. 24 h, 150 μmol/L", "value": "98.31 ± 12.17", "unit": "%"},
      {"measurement": "Intracellular Calcium changes [(F1 − F0)/F0/%]", "setting": "[3]; Table 10, DRG cells, 37° C. 22 h then 39° C. 2 h, 37.5 μmol/L", "value": "133.49 ± 15.18", "unit": "%"},
      {"measurement": "Intracellular Calcium changes [(F1 − F0)/F0/%]", "setting": "[3]; Table 10, DRG cells, 37° C. 22 h then 39° C. 2 h, 75 μmol/L", "value": "132.01 ± 14.50", "unit": "%"},
      {"measurement": "Intracellular Calcium changes [(F1 − F0)/F0/%]", "setting": "[3]; Table 10, DRG cells, 37° C. 22 h then 39° C. 2 h, 150 μmol/L", "value": "126.08 ± 12.48", "unit": "%"},
      {"measurement": "Intracellular Calcium changes [(F1 − F0)/F0/%]", "setting": "[3]; Table 11, DRG cells, 37° C. 21 h then 19° C. 3 h, 37.5 μmol/L", "value": "96.91 ± 11.34", "unit": "%"},
      {"measurement": "Intracellular Calcium changes [(F1 − F0)/F0/%]", "setting": "[3]; Table 11, DRG cells, 37° C. 21 h then 19° C. 3 h, 75 μmol/L", "value": "96.75 ± 11.08", "unit": "%"},
      {"measurement": "Intracellular Calcium changes [(F1 − F0)/F0/%]", "setting": "[3]; Table 11, DRG cells, 37° C. 21 h then 19° C. 3 h, 150 μmol/L", "value": "95.48 ± 10.23", "unit": "%"},
      {"measurement": "TRPM8 mRNA expression (2^−ΔΔCT)", "setting": "[4]; [5]", "value": "3.67 ± 0.93"},
      {"measurement": "TRPM8 mRNA expression (2^−ΔΔCT)", "setting": "[4]; [6]", "value": "3.72 ± 1.09"},
      {"measurement": "TRPM8 mRNA expression (2^−ΔΔCT)", "setting": "[4]; [7]", "value": "4.07 ± 1.12"},
      {"measurement": "TRPM8 mRNA expression (2^−ΔΔCT)", "setting": "[4]; [8]", "value": "0.89 ± 0.25"},
      {"measurement": "TRPM8 mRNA expression (2^−ΔΔCT)", "setting": "[4]; [9]", "value": "0.91 ± 0.27"},
      {"measurement": "TRPM8 mRNA expression (2^−ΔΔCT)", "setting": "[4]; [10]", "value": "0.96 ± 0.32"},
      {"measurement": "TRPM8 mRNA expression (2^−ΔΔCT)", "setting": "[4]; 37° C. 24 h, 37.5 μmol/L", "value": "1.13 ± 0.22"},
      {"measurement": "TRPM8 mRNA expression (2^−ΔΔCT)", "setting": "[4]; 37° C. 24 h, 75 μmol/L", "value": "1.20 ± 0.28"},
      {"measurement": "TRPM8 mRNA expression (2^−ΔΔCT)", "setting": "[4]; 37° C. 24 h, 150 μmol/L", "value": "1.29 ± 0.31"}
    ]}
  ]
}
